{"source": "patent US20140093960A1", "about": "“CELL DIFFERENTIATION INDUCER AND DIFFERENTIATION INDUCING METHOD” (The University of Tokushima, priority 2011, published 2014)", "type_in_all_cases": "cell-based", "key": {"[1]": {"test_system": "mouse ES cells (AB2-2)", "assay": "Combinational effect with retinoic acid, cell count (Example 9)", "conditions": "4 days; for number of the nervous system cells: average of four experiments", "procedure": "The culture medium was added to a petri dish having a diameter of 60 mm. Further, 1 10^6 mouse ES cells (AB2-2) which were obtained from Dr. Alan Bradley in The Wellcome Trust Sanger Institute were added thereto, and incubated under 5% CO2 atmosphere at 37° C. for 1 day. Then, the cells were separated using a glass pipet and added to the same petri dish again, and incubated under 5% CO2 atmosphere at 37° C. for 3 days to form embryoid bodies. […] Then, the above cultured cell dispersion ([…]) was added to 96 well plate which was coated with collagen type I, and was incubated under 5% CO2 atmosphere at 37° C. overnight. On the next day, the examined compound 5 only or with retinoic acid in combination in each final concentration of 10 nM was added thereto, and the cells were incubated in adhesive state under 5% CO2 atmosphere at 37° C. for 4 days. After the incubation, the cells were washed with PBS, and separated using 0.25% Trypsin. The number of the cells was counted. This experiment was carried out four times, and the average of the counted numbers was obtained. […] In the FIG. 7, “RA” represents retinoic acid."}, "[2]": {"test_system": "mouse ES cells (AB2-2)", "assay": "Induction of differentiation of mouse ES cell, change of morphology (Example 7(1))", "conditions": "minimum concentration at which the change of the morphology was observed; embryoid bodies from mouse ES cells, 25 to 100 μM, cultured 4 days, hematoxylin staining", "procedure": "The culture medium was added to a petri dish having a diameter of 60 mm. Further, 1 10^6 mouse ES cells (AB2-2) which were obtained from Dr. Alan Bradley in The Wellcome Trust Sanger Institute were added thereto, and incubated under 5% CO2 atmosphere at 37° C. for 1 day. Then, the cells were separated using a glass pipet and added to the same petri dish again, and incubated under 5% CO2 atmosphere at 37° C. for 3 days to form embryoid bodies.\nThen, the above cultured cell dispersion (100 μL) was added to 96 well plate which was coated with collagen type 1, and was incubated under 5% CO2 atmosphere at 37° C. overnight. Separately, each examined compound was dissolved in a culture medium which was obtained by removing […] and a leukemia inhibitory factor from an ES culture medium and which was used for inducing a differentiation, and the solutions were added each well so that the final concentrations were 25 to 100 μM. As examined compounds, compounds which were synthesized by similar methods to Examples 1 to 6 in addition to the compounds synthesized in Examples 1 to 6 were used. […] In addition, fetal bovine serum was added at a final concentration of 5% and bFGF: basic fibroblast growth factor was added at a final concentration of 2 ng/mL to each well, and the cells were cultured in an adhesive state under 5% CO2 atmosphere at 37° C. for 4 days.\nAfter the above culture, paraformaldehyde was added to each well at a final concentration of 2% to fix the cells. The cells were stained with hematoxylin, and the change of the morphology thereof was observed using an optical microscope. As control, only dimethylsulfoxide was added at a final concentration of 0.5% without adding the examined compound. […] In addition, the minimum concentrations of each examined compound at which the change of the morphology was observed are summarized in Table 2."}, "[3]": {"test_system": "mouse ES cell", "assay": "Gene expression analysis by RT-PCR (Example 7(3))", "conditions": "mouse ES cell treated with 80 μM for 5 days", "procedure": "Differentiation of a mouse ES cell was induced similarly to the above (1) except that the cell was treated with 80 μM of the examined compound 4 for 5 days. From the obtained cell, total RNA was extracted using TRIzol reagent. Using the total RNA, cDNA was synthesized by an ordinary method. A polymerase chain reaction was carried out using the synthesized cDNA as a template and each primer of Oct3/4▪Nanog—a marker of an undifferentiated cell, Nestin—a marker of a neural stem cell, Sox9▪Sox10▪Slug—a marker of a neural crest cell, GATA2—a marker of a mesoderm, Sca-1—a marker of a stem cell, and c-kit—a marker of a hematopoietic stem cell for analyzing the expression of each marker. In addition, for comparison, the expression was similarly analyzed with respect to an undifferentiated mouse ES cell and an embryoid body obtained by culturing a mouse ES cell for 3 days."}, "[4]": {"test_system": "mouse ES cells (AB2-2)", "assay": "Induction of differentiation of mouse ES cell, morphology (Example 10)", "conditions": "50 μM, 4 days, hematoxylin staining, optical microscope", "procedure": "A culture medium to induce an embryoid bodies used in Example 7 (4 mL) was added to a petri dish having a diameter of 60 mm. Further, 10^6 mouse ES cells (AB2-2) were added thereto, and incubated under 5% CO2 atmosphere at 37° C. for 3 days. The obtained embryoid was added into a […] volume tube. The above petri dish was washed by adding 1 PBS (5 mL), and the PBS was added into the above tube. The half quantity of the obtained cells was transferred to a separate tube, and the tube was stood still at room temperature for 5 minutes. After the supernatant was removed, an NP medium (10.5 mL) used in Example 7 was added. The cells were dispersed well, and the mixture was added to each well of a 96 well plate which was coated with collagen in an amount of 100 μL. The cells were incubated under 5% CO2 atmosphere at 37° C. overnight.\nIn DMSO, 3,4-dihydroxybenzonitrile (manufactured by Tokyo Chemical Industry Co., Ltd.) was dissolved. The solution was added to each well so that the total amount became 200 μL in a final concentration of 12.5 μM, 25 μM or […]. Further, blood serum and bFGF: basic fibroblast growth factor were added to each well respectively in final concentrations of 5% and 10 ng/mL, and the cells were cultured under 5% CO2 atmosphere at 37° C. for 4 days.\nAfter the cultivation, 100 μL of the culture medium was removed from each well. […]"}}}
{"compound": "COC(=O)c1cc(O)c(O)c(O)c1", "note": "[Example 5, Methyl 3,4,5-trihydroxybenzoate]", "values": [{"measurement": "number of the nervous system cells", "setting": "[1]; compound only, final concentration 10 nM", "value": "1.71±0.51 10^6"}, {"measurement": "increase of the number of nervous system cells with retinoic acid in combination versus compound only", "setting": "[1]; each final concentration 10 nM", "value": "about 1.89 times"}, {"measurement": "number of the nervous system cells", "setting": "[1]; in combination with retinoic acid, each final concentration 10 nM", "value": "3.23±0.42 10^6"}]}
{"compound": "2-(2,3-Dihydroxyphenyl)thiazole-4-carboxylic acid [examined compound 3]", "values": [{"measurement": "Minimum inhibitory concentration", "setting": "[2]", "value": 70, "unit": "μ M 70 μ M"}, {"measurement": "Slug expression (marker of a neural crest cell)", "setting": "[3]", "value": "remarkably expressed"}, {"measurement": "Sox9 expression (marker of a neural crest cell)", "setting": "[3]", "value": "expressed"}, {"measurement": "Sox10 expression (marker of a neural crest cell)", "setting": "[3]", "value": "expressed"}]}
{"compound": "N#Cc1ccc(O)c(O)c1", "note": "[3,4-dihydroxybenzonitrile]", "values": [{"measurement": "change of the cells' morphology", "setting": "[4]", "value": "nervous system cells which had cell processes all around were observed"}]}
{"compound": "O=C(O)[C@@H]1CSC(c2cccc(OCc3ccccc3)c2OCc2ccccc2)=N1", "note": "[examined compound 2, (R)-2-{2,3-Bis(benzyloxy)phenyl}-4,5-dihydrothiazole-4-carboxylic acid]", "values": [{"measurement": "Minimum effective concentration for morphology change", "setting": "[2]", "value": 100, "unit": "μ M"}]}
{"compound": "O=C(O)c1csc(-c2cccc(OCc3ccccc3)c2OCc2ccccc2)n1", "note": "[examined compound 1, 2-{2,3-Bis(benzyloxy)phenyl}thiazole-4-carboxylic acid]", "values": [{"measurement": "Minimum effective concentration for morphology change", "setting": "[2]", "value": 50, "unit": "μ M"}]}
